Data taken from ChEMBL document CHEMBL1201862, “PubChem BioAssay data set” (2004).
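Exposure lasted 48 hours, with cells grown in 96-well plates and compounds tested at five concentrations. Abbreviation: GI50, concentration required for 50% inhibition of growth.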 Activity calls are given as the source filed them. Cut-off read from the data, not from the text of the source: active = GI50 up to about 1.1 µM and inactive = higher.

How the values were obtained:
Assay in all cases: NCI anticancer screen, dose series, 48 h
SN12C = test system: SN12C
TK-10 = test system: TK-10
T47D = test system: T47D
SF-268 = test system: SF-268
M14 = test system: M14
NCI/ADR-RES = test system: NCI/ADR-RES
NCI-H23 = test system: NCI-H23
EKVX = test system: EKVX
HCT-15 = test system: HCT-15
NCI-H522 = test system: NCI-H522
SNB-19 = test system: SNB-19
SW-620 = test system: SW-620
SF-295 = test system: SF-295
HCT-116 = test system: HCT-116
U-251 = test system: U-251
NCI-H226 = test system: NCI-H226
KM12 = test system: KM12
HT-29 = test system: HT-29
HOP-62 = test system: HOP-62

| SMILES | GI50 (SN12C) | GI50 (TK-10) | GI50 (T47D) | GI50 (SF-268) | GI50 (M14) | GI50 (NCI/ADR-RES) | GI50 (NCI-H23) | GI50 (EKVX) | GI50 (HCT-15) | GI50 (NCI-H522) | GI50 (SNB-19) | GI50 (SW-620) | GI50 (SF-295) | GI50 (HCT-116) | GI50 (U-251) | GI50 (NCI-H226) | GI50 (KM12) | GI50 (HT-29) | GI50 (HOP-62) |
| --- | --- | --- | --- | --- | --- | --- | --- | --- | --- | --- | --- | --- | --- | --- | --- | --- | --- | --- | --- |
| CC1(C)CC(=O)C(CC(C(=O)C(=O)Nc2cc(C(F)(F)F)ccc2Cl)C(=O)c2ccco2)C(=O)C1 (stereo unspecified) | > 100 µM (inactive) | > 100 µM (inactive) | > 100 µM (inactive) | > 100 µM (inactive) | > 100 µM (inactive) | > 100 µM (inactive) | > 100 µM (inactive) | > 100 µM (inactive) | > 100 µM | > 100 µM (inactive) | > 100 µM (inactive) | > 100 µM (inactive) | > 100 µM (inactive) | > 100 µM (inactive) | > 100 µM (inactive) | > 100 µM (inactive) | > 100 µM (inactive) | > 100 µM (inactive) | – |
| CC(C)(C)OC(=O)CN1CCNCCN(CC(=O)OC(C)(C)C)CC1 | > 100 µM (inactive) | > 100 µM (inactive) | > 100 µM (inactive) | – | > 100 µM (inactive) | > 100 µM (inactive) | – | > 100 µM (inactive) | > 100 µM | 56.9 µM (inactive) | > 100 µM (inactive) | – | > 100 µM (inactive) | > 100 µM (inactive) | – | > 100 µM (inactive) | > 100 µM (inactive) | 44.3 µM (inactive) | > 100 µM (inactive) |
| COC1=N[C@H](C(C)C)C(OC)=N[C@H]1Cc1ccc(C[C@@H]2N=C(OC)[C@@H](C(C)C)N=C2OC)s1 | 43.3 µM (inactive) | > 100 µM (inactive) | 13.5 µM (inactive) | 67.8 µM (inactive) | 36 µM (inactive) | 52.6 µM (inactive) | 25.1 µM (inactive) | 24.8 µM (inactive) | 46.1 µM | 23.7 µM (inactive) | 54.5 µM (inactive) | 39.9 µM (inactive) | 38.2 µM (inactive) | 31 µM (inactive) | 24 µM (inactive) | – | 38.6 µM (inactive) | 26.2 µM (inactive) | 54.8 µM (inactive) |
| O=C(Nc1ccc(N2C(=O)CSC2c2ccccc2O)cc1)c1ccc(N2C(=O)CSC2c2ccccc2O)cc1 (stereo unspecified) | > 100 µM (inactive) | 74 µM (inactive) | 43.3 µM (inactive) | 95.1 µM (inactive) | 23.6 µM (inactive) | > 100 µM (inactive) | 64.4 µM (inactive) | 79.4 µM (inactive) | > 100 µM | 55.7 µM (inactive) | 31.4 µM (inactive) | > 100 µM (inactive) | 34.4 µM (inactive) | 88.3 µM (inactive) | 34 µM (inactive) | – | > 100 µM (inactive) | > 100 µM (inactive) | 32.4 µM (inactive) |
| CC1(C)C2CCC(=O)C1C(OCc1ccccc1)C2 (stereo unspecified) | > 100 µM (inactive) | > 100 µM (inactive) | > 100 µM (inactive) | > 100 µM (inactive) | > 100 µM (inactive) | > 100 µM (inactive) | > 100 µM (inactive) | – | > 100 µM | > 100 µM (inactive) | > 100 µM (inactive) | > 100 µM (inactive) | > 100 µM (inactive) | > 100 µM (inactive) | > 100 µM (inactive) | > 100 µM (inactive) | > 100 µM (inactive) | > 100 µM (inactive) | > 100 µM (inactive) |
| CCSC12OC3(CCCCCN3C1=O)C1C(=O)N(c3ccccc3)C(=O)C12 (stereo unspecified) | > 100 µM (inactive) | > 100 µM (inactive) | > 100 µM (inactive) | > 100 µM (inactive) | > 100 µM (inactive) | > 100 µM (inactive) | > 100 µM (inactive) | > 100 µM (inactive) | > 100 µM | > 100 µM (inactive) | > 100 µM (inactive) | > 100 µM (inactive) | > 100 µM (inactive) | > 100 µM (inactive) | > 100 µM (inactive) | > 100 µM (inactive) | > 100 µM (inactive) | > 100 µM (inactive) | – |
| Cc1cc(C)c(C#N)c(SC(=S)NC(=O)c2ccccc2)n1 | > 100 µM (inactive) | > 100 µM (inactive) | > 100 µM (inactive) | > 100 µM (inactive) | > 100 µM (inactive) | > 100 µM (inactive) | > 100 µM (inactive) | > 100 µM (inactive) | > 100 µM | > 100 µM (inactive) | > 100 µM (inactive) | > 100 µM (inactive) | – | > 100 µM (inactive) | > 100 µM (inactive) | > 100 µM (inactive) | > 100 µM (inactive) | > 100 µM (inactive) | > 100 µM (inactive) |
| COC([C@@H](OC(=O)c1ccccc1)[C@H](OC(=O)c1ccccc1)C(O)COC(=O)c1ccccc1)n1cc(C)c(=O)[nH]c1=O (stereo partly specified) | 43.2 µM (inactive) | 33.8 µM (inactive) | 11.6 µM (inactive) | 29.7 µM (inactive) | 22.8 µM (inactive) | 28.6 µM (inactive) | 29.4 µM (inactive) | 26.1 µM (inactive) | 27 µM | 20.4 µM (inactive) | 22.2 µM (inactive) | 21.3 µM (inactive) | 24.4 µM (inactive) | 23.6 µM (inactive) | 14.5 µM (inactive) | 20.8 µM (inactive) | – | 15.7 µM (inactive) | 35.3 µM (inactive) |
